Assay results: ChEMBL document CHEMBL1201862, “PubChem BioAssay data set” (2004)
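Tested at 5 concentrations; 48 h exposure; 96-well plates; endpoints linearly interpolated, else capped at highest concentration. Abbreviation: GI50, concentration required for 50% inhibition of growth.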 Activity calls are given as the source filed them. No stated cut-off is given here; in the data, active = GI50 up to about 1.1 µM and inactive = higher.

Experiments:
Assay in all cases: growth of human tumour cells (NCI), 48 h
HL-60 = test system: HL-60
SF-539 = test system: SF-539
UACC-62 = test system: UACC-62
COLO 205 = test system: COLO 205
OVCAR-4 = test system: OVCAR-4
A498 = test system: A498
BT-549 = test system: BT-549
SW-620 = test system: SW-620
U-251 = test system: U-251
MDA-N = test system: MDA-N
HCT-116 = test system: HCT-116
UACC-257 = test system: UACC-257
SK-MEL-2 = test system: SK-MEL-2
SK-OV-3 = test system: SK-OV-3
K562 = test system: K562
Malme-3M = test system: Malme-3M
PC-3 = test system: PC-3
Hs-578T = test system: Hs-578T
HT-29 = test system: HT-29
NCI-H460 = test system: NCI-H460
CCRF-CEM = test system: CCRF-CEM
M14 = test system: M14
HOP-62 = test system: HOP-62
DU-145 = test system: DU-145
A549 = test system: A549
HCT-15 = test system: HCT-15
SK-MEL-28 = test system: SK-MEL-28
SN12C = test system: SN12C
HCC 2998 = test system: HCC 2998
SK-MEL-5 = test system: SK-MEL-5
SF-268 = test system: SF-268
SR = test system: SR
NCI-H226 = test system: NCI-H226
SNB-19 = test system: SNB-19
UO-31 = test system: UO-31
CAKI-1 = test system: CAKI-1
NCI-H522 = test system: NCI-H522
NCI/ADR-RES = test system: NCI/ADR-RES
MDA-MB-435 = test system: MDA-MB-435
SNB-75 = test system: SNB-75
ACHN = test system: ACHN
KM12 = test system: KM12
MDA-MB-231 = test system: MDA-MB-231
NCI-H23 = test system: NCI-H23
TK-10 = test system: TK-10
MOLT-4 = test system: MOLT-4
RPMI-8226 = test system: RPMI-8226
SF-295 = test system: SF-295
OVCAR-8 = test system: OVCAR-8
MCF7 = test system: MCF7
HOP-92 = test system: HOP-92
T47D = test system: T47D
LOX IMVI = test system: LOX IMVI
786-0 = test system: 786-0
OVCAR-3 = test system: OVCAR-3
RXF 393 = test system: RXF 393
OVCAR-5 = test system: OVCAR-5
EKVX = test system: EKVX
IGROV-1 = test system: IGROV-1

Measured: GI50

O=[N+]([O-])c1cccc2nc3ccccc3c(NCCc3cccc[n+]3[O-])c12
< 0.0138 µM: HCT-15
active: HL-60 < 0.0427 µM | SF-539 0.0407 µM | UACC-62 0.052 µM | COLO 205 < 0.01 µM | OVCAR-4 0.0541 µM | A498 0.0475 µM | BT-549 < 0.0165 µM | SW-620 < 0.01 µM | U-251 < 0.038 µM | MDA-N 0.0153 µM | HCT-116 < 0.01 µM | UACC-257 < 0.0231 µM | SK-MEL-2 0.0619 µM | SK-OV-3 0.153 µM | K562 0.0168 µM | Malme-3M < 0.0144 µM | PC-3 < 0.0391 µM | Hs-578T 0.0782 µM | HT-29 0.0103 µM | NCI-H460 < 0.0141 µM | CCRF-CEM < 0.0318 µM | M14 < 0.0105 µM | HOP-62 < 0.0177 µM | DU-145 < 0.01 µM | A549 < 0.0159 µM | SK-MEL-28 < 0.01 µM | SN12C < 0.0199 µM | HCC 2998 < 0.01 µM | SK-MEL-5 < 0.01 µM | SF-268 < 0.0476 µM | SR < 0.01 µM | NCI-H226 0.0738 µM | SNB-19 0.128 µM | UO-31 < 0.0193 µM | CAKI-1 < 0.0402 µM | NCI-H522 0.0187 µM | NCI/ADR-RES 0.608 µM | MDA-MB-435 < 0.0116 µM | SNB-75 < 0.0438 µM | ACHN 0.0103 µM | KM12 < 0.0328 µM | MDA-MB-231 < 0.01 µM | NCI-H23 < 0.0115 µM | TK-10 < 0.0486 µM | MOLT-4 < 0.0144 µM | RPMI-8226 0.0123 µM | SF-295 < 0.0368 µM | OVCAR-8 < 0.0176 µM | MCF7 < 0.0116 µM | HOP-92 < 0.0183 µM | T47D < 0.0378 µM | LOX IMVI 0.0299 µM | 786-0 < 0.0168 µM | OVCAR-3 < 0.0385 µM | RXF 393 0.0196 µM | OVCAR-5 < 0.0194 µM | EKVX < 0.0212 µM

Cc1ccc(CC(=O)Nc2ccc(NC(=O)CNC(=O)/C=C/c3ccc(-c4ccccc4)cc3)cc2C(=O)c2ccccc2)cc1
inactive: HL-60 7.45 µM | SF-539 2.7 µM | UACC-62 13.1 µM | COLO 205 6.93 µM | BT-549 10.9 µM | SW-620 4.75 µM | U-251 2.77 µM | MDA-N 4.74 µM | HCT-116 1.36 µM | UACC-257 6.32 µM | SK-MEL-2 13.9 µM | SK-OV-3 10.7 µM | K562 3.33 µM | Malme-3M 2.99 µM | PC-3 1.98 µM | Hs-578T 4.71 µM | HT-29 1.58 µM | NCI-H460 2.86 µM | CCRF-CEM 4.79 µM | M14 4.81 µM | HOP-62 2.55 µM | DU-145 2.49 µM | A549 2.03 µM | SK-MEL-28 11.7 µM | SN12C 2.74 µM | HCC 2998 1.67 µM | SK-MEL-5 1.69 µM | SF-268 2.45 µM | SR 1.84 µM | NCI-H226 2.79 µM | SNB-19 4.57 µM | UO-31 11.8 µM | CAKI-1 4.9 µM | NCI-H522 5.13 µM | NCI/ADR-RES 9.71 µM | MDA-MB-435 3.66 µM | ACHN 4.8 µM | KM12 3.56 µM | MDA-MB-231 2.62 µM | NCI-H23 2.06 µM | TK-10 2.08 µM | MOLT-4 3.5 µM | RPMI-8226 10.4 µM | SF-295 2.22 µM | OVCAR-8 1.59 µM | MCF7 1.82 µM | HOP-92 4.17 µM | T47D 1.76 µM | IGROV-1 8.24 µM | LOX IMVI 3.69 µM | 786-0 2.28 µM | OVCAR-3 4.98 µM | RXF 393 2.38 µM | OVCAR-5 4.48 µM | EKVX 3.47 µM
3.69 µM: HCT-15
active: A498 0.989 µM

Cn1c(=O)c2[nH]c(N/N=C3/SCC(=O)N3Cc3ccccc3)nc2n(C)c1=O
inactive: HL-60 69.5 µM | SF-539 29.1 µM | UACC-62 > 100 µM | COLO 205 > 100 µM | OVCAR-4 41.6 µM | A498 > 100 µM | BT-549 > 100 µM | U-251 55.3 µM | MDA-N 16.4 µM | HCT-116 45.4 µM | UACC-257 > 100 µM | SK-MEL-2 42.8 µM | SK-OV-3 30.2 µM | K562 30.5 µM | Malme-3M 52.5 µM | PC-3 > 100 µM | Hs-578T 17.1 µM | HT-29 48.9 µM | NCI-H460 > 100 µM | CCRF-CEM 22.1 µM | M14 44.3 µM | HOP-62 > 100 µM | DU-145 65.6 µM | A549 > 100 µM | SK-MEL-28 > 100 µM | SN12C > 100 µM | HCC 2998 > 100 µM | SK-MEL-5 34.9 µM | SF-268 33.3 µM | SR 24.9 µM | NCI-H226 > 100 µM | SNB-19 > 100 µM | UO-31 > 100 µM | CAKI-1 > 100 µM | NCI-H522 50.8 µM | NCI/ADR-RES > 100 µM | MDA-MB-435 19.1 µM | ACHN > 100 µM | KM12 48.2 µM | MDA-MB-231 51.9 µM | NCI-H23 71.9 µM | TK-10 > 100 µM | MOLT-4 29 µM | RPMI-8226 42.4 µM | SF-295 21.2 µM | OVCAR-8 > 100 µM | MCF7 19.4 µM | HOP-92 15.7 µM | T47D 41.1 µM | IGROV-1 > 100 µM | 786-0 27 µM | OVCAR-3 74.5 µM | RXF 393 > 100 µM | OVCAR-5 19 µM | EKVX 42.1 µM
> 100 µM: HCT-15
